# Laboratory results taken from patent US8822482B2, “Icotinib hydrochloride, synthesis, crystalline forms, pharmaceutical compositions, and uses thereof” (Beta Pharma, Inc., priority 2008, dated 2014).
# Read-outs that look alike come from different tables or passages of the source.
# Legend:
# [1] = biological target: Arg (abl-related gene) tyrosine kinase (Homo sapiens, UniProt P42684); assay: Selectivity: inhibition of Arg tyrosine kinase, Crk substrate phosphorylation, same methodology; type: biochemical; details: 62.5 nM
# Sequence of Arg (abl-related gene) tyrosine kinase (P42684 whole entry): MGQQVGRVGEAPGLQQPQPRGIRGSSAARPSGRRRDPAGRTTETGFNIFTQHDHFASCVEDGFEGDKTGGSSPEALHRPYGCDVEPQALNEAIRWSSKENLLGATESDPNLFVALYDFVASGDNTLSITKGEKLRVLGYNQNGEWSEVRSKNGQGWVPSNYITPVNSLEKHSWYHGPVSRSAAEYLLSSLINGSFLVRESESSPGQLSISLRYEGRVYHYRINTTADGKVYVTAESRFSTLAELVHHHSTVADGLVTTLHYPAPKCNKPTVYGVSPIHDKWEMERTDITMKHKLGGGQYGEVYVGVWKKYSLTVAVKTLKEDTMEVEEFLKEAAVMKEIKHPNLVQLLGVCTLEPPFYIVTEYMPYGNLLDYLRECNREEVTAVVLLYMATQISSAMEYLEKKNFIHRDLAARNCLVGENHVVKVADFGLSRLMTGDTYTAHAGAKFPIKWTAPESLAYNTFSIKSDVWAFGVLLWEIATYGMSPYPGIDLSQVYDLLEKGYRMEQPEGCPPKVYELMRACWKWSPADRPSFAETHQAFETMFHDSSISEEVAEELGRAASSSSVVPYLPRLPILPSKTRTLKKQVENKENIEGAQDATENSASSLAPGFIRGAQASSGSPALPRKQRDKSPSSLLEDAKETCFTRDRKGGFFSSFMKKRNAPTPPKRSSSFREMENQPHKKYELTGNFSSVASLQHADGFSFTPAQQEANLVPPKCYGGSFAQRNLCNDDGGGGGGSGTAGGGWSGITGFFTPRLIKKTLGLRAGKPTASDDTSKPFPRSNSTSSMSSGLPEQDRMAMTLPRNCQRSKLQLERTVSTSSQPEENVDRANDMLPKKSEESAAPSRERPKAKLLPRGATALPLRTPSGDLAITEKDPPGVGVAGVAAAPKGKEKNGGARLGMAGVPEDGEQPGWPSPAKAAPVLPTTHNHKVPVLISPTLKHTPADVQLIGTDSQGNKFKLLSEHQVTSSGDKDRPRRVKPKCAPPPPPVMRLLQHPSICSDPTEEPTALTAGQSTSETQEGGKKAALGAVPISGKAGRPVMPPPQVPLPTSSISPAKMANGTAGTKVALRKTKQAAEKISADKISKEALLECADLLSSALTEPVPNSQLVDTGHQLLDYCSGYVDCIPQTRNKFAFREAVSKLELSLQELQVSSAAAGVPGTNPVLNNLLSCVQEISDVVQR
# Method: (§1) Method: This method is based on the ability of protein kinases to catalyze substrate phosphorylation; radioisotope ^32P-labeled ATP (^32P-γ-ATP) is utilized in the reaction system to radioactively tag the protein substrate with ^32P. After separation and isolation of the protein substrate by polyacrylamide gel electrophoresis, the intensity of the radioactive ^32P-labeled protein substrate is recorded.
# (§2) The kinase reaction buffer included 1 μM of non-isotope labeled-ATP. […] The mixture was incubated on ice for 10 min, and 1 μCi of ^32P-γ-ATP was then added. After incubation at 30° C. for 20 min, SDS (sodium dodecyl sulfate) sample buffer was added, and the mixture was boiled in a 100° C. water bath for 4 min. The samples were separated by 10% SDS-PAGE. After vacuum drying of the polyacrylamide gel, the intensity of radioactively labeled proteins were measured and recorded using a Phosphorimager (Molecular Dynamics Inc.). The signal was quantitatively analyzed utilizing ImageQuant software. The degree of Crk substrate phosphorylation was used to estimate the activity of the kinase. Inhibition (%)=(1−kinase activity of the test group/kinase activity of control group)×100%
# [2] = Pharmacokinetic study of the different crystalline forms and the free base in rats; type: in vivo, Wistar rats; details: for The area under the concentration-time curve (0-infinity) / The area under the concentration-time curve (0-t): fasted Wistar rats, oral suspension, dose equivalent to 35 mg/kg Icotinib hydrochloride, plasma, hydrochloride
# Method: Drugs and reagents: Icotinib (free base) and Icotinib hydrochloride crystalline forms I, II, III, and IV were ground to fine particles. The material content (purity) was not less than 99.0%. Sodium carboxymethyl cellulose was medical supply graded. Experimental animals: Wistar rats, male and female, 150-220 g each. Pharmaceutical preparation: Weigh the appropriate amount of each substance and add sodium carboxymethyl cellulose to 0.5%. Prepare a suspension at a final concentration of 3.5 mg/mL in water. Administration and sample collection: Each suspension was administered orally to fasted Wistar rats at a dose equivalent to 35 mg/kg Icotinib hydrochloride in a dose volume of 10 ml/kg. […] After purification, samples were analyzed by high performance liquid chromatography. The chromatographic conditions utilized C18-silane bonded silica as stationary phase, 0.02 mol/L of sodium dihydrogen phosphate in acetonitrile (40:60, using sodium hydroxide solution to adjust pH to 5.0) as the mobile phase and a detection wavelength of 334 nm.
# P450 enzymes = assay: Induction of P450 enzymes in rat liver; type: in vivo
# Method: (§3) In addition, non-clinical pharmacokinetic studies of Icotinib hydrochloride Crystalline Form I in Beagle dogs and rats were conducted.
# EGFR tyrosine kinase = EGFR tyrosine kinase (Homo sapiens, UniProt P00533); assay: Inhibition of EGFR tyrosine kinase, 32P-ATP Crk substrate phosphorylation, polyacrylamide gel electrophoresis; type: biochemical; details: for inhibition at 0.0625 µM: 62.5 nM
# Sequence of EGFR tyrosine kinase (P00533 25-1210): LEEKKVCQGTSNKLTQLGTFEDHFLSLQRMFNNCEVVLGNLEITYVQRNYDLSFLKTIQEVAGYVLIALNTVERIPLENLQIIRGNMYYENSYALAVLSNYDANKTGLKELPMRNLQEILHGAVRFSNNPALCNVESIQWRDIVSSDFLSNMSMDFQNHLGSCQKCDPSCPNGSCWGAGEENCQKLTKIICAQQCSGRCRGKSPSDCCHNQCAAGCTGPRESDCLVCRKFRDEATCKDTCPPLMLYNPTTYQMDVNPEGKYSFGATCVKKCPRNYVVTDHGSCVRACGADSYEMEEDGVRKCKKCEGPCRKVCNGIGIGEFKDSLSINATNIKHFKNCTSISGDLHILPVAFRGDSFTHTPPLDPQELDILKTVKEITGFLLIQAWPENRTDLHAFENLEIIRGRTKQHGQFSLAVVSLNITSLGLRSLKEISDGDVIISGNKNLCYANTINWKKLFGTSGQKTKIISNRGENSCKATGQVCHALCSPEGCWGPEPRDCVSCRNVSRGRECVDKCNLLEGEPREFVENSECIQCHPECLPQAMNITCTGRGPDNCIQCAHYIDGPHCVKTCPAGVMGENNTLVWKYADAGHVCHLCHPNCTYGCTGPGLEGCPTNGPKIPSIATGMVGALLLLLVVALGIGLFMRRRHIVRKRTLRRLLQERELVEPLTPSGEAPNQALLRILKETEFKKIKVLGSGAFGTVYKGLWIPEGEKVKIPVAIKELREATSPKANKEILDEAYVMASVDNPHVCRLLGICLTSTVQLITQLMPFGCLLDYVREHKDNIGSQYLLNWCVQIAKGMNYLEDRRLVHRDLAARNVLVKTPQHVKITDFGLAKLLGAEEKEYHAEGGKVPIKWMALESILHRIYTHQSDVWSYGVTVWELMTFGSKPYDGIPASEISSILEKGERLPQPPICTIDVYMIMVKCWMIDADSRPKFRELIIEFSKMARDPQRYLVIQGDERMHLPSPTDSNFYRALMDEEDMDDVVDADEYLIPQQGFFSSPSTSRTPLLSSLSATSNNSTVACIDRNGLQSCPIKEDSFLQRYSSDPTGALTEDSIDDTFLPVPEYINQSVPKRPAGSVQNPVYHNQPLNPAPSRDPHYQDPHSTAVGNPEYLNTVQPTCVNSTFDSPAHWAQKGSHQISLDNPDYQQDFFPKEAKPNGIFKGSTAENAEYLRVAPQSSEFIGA
# Method: as §1, §2
# in vivo = assay: in vivo
# Method: as §3
# [3] = test system: EGFR tyrosine kinase-mediated intracellular protein tyrosine phosphorylation in A431 cells; assay: Inhibition of EGFR-mediated protein phosphorylation at the cellular level (A431 cells, EGF-stimulated, anti-phosphotyrosine blot); type: cell-based; details: Homo sapiens
# Method: Methods: The experiment utilized a high EGFR-expressing cell line, A431 (human epidermoid carcinoma). A431 cells in logarithmic growth phase were seeded into 12-well cell culture plates (5×10^5 cells/well); the cells were grown in DMEM cell culture medium (Gibco Company) containing 10% fetal calf serum (FCS) at 37° C. in 5% CO2 for 18 hours. The cells were washed twice with PBS buffer, and DMEM without FCS was then added. After incubating for 18 hours, Icotinib hydrochloride Crystalline Form I in dimethyl sulfoxide (DMSO) was added to individual wells at final concentrations of 0, 10, 50, 250 or 1000 nM. After incubating at 37° C. for 2.5 hours, 100 ng/ml of EGF was added to stimulate the cells for 5 minutes. Cells were then extracted in the presence 1 mM vanadate (inhibits dephosphorylation) to collect total cellular proteins, and proteins were resolved by 10% SDS-PAGE and transferred to nitrocellulose. Following detection of phosphorylated proteins with anti-phosphotyrosine antibodies (PY99 and 4G10, Upstate Biotech) and visualization with a horseradish peroxidase-labeled second antibody (Transduction Laboratories, Inc.) and ECL chemiluminescence (Amersham Corp.), bands were quantified by densitometry. Membranes were then stripped and incubated with anti-EGFR antibodies to compare amounts of EGFR in cells exposed to different concentrations of Icotinib hydrochloride Crystalline Form I as an internal control. Inhibition (%)=(1−kinase activity of the test group/kinase activity of control group)×100%
# [4] = test system: H460 human lung adenocarcinoma xenograft; type: in vivo
# [5] = test system: human A431 (human epidermoid carcinoma cell line) xenograft tumor; assay: Tumor inhibition on human A431 xenograft in nude mice; type: in vivo, BALB/C nude mice
# Excerpt: This was a preliminary study to compare Icotinib hydrochloride Crystalline Form I with erlotinib hydrochloride on inhibition of human A431 (human epidermoid carcinoma cell line) xenograft tumor.
# Methods: The high EGFR-expressing human A431 (human epidermoid carcinoma cell line) cell line was selected for the xenograft study.
# Tumor transplantation method: A431 human epidermoid cancer cells were inoculated subcutaneously in the right armpit of BALB/C nude mice to generate tumor nodules. These nodules were harvested, cut into 6 mm^3 blocks for routine inoculation and implanted into each mouse for the study. When tumors reached approximately 20 mm^3 in size (6-7 days), the animals were randomly divided into 4 groups of 6-9 animals/each group and body weights were recorded. The groups consisted of a control group (no drug treatment), an erlotinib hydrochloride treatment group (200 mg/kg) and high and low dose Icotinib hydrochloride Crystalline Form I treatment groups (200 and 50 mg/kg). Drugs were administered by oral gavage once daily; dosing frequency depended on the individual case for tumor growth. Tumor volume [tumor volume (V)=tumor size (L)×short diameter of tumor (S)^2/2] was measured using calipers once every 3 days. The animals were sacrificed 24-hour after the last drug administration and weighed. The tumor was removed and weighed to accurately calculate the tumor size. All group data was analyzed using the t test. If the p value was <0.05, it was considered to be statistically significant. Efficacy determination: tumor inhibition rate=[1−treatment group mean tumor weight (T)/control group mean tumor weight (C)]×100%
structure (smiles),measurement,setting,value
"C#Cc1cccc(Nc2ncnc3cc4c(cc23)OCCOCCOCCO4)c1.Cl [4-[(3-ethynyl-phenyl)amino]-6,7-benzo-12-crown-quinazoline hydrochloride]",inhibition of Arg kinase,[1],did not inhibit
same,area under the concentration-time curve (0-t) and (0-infinity) relative to the free base form,"[2]; Wistar rats, oral, 35 mg/kg equivalent",approximately 3 times
same,The area under the concentration-time curve (0-infinity),[2]; listed as Crystalline Form I,93.73
same,The area under the concentration-time curve (0-t),[2]; listed as Crystalline Form I,91.80
same,The area under the concentration-time curve (0-infinity),[2]; listed as Crystalline Form II,90.77
same,The area under the concentration-time curve (0-t),[2]; listed as Crystalline Form II,88.28
same,The area under the concentration-time curve (0-infinity),[2]; listed as Crystalline Form III,90.26
same,The area under the concentration-time curve (0-t),[2]; listed as Crystalline Form III,89.23
same,The area under the concentration-time curve (0-infinity),[2]; listed as Crystalline Form IV,90.23
same,The area under the concentration-time curve (0-t),[2]; listed as Crystalline Form IV,86.29
same,induction effect on P450 enzymes,P450 enzymes,No significant induction effect
same,inhibition at 0.0005 µM,"EGFR tyrosine kinase; 0.5 nM, read-out: inhibition rate of EGFR kinase activity",20.5%
same,inhibition at 0.0025 µM,"EGFR tyrosine kinase; 2.5 nM, read-out: inhibition rate of EGFR kinase activity",36.6%
same,inhibition at 0.0125 µM,"EGFR tyrosine kinase; 12.5 nM, read-out: inhibition rate of EGFR kinase activity",63%
same,inhibition at 0.0625 µM,"EGFR tyrosine kinase; parallel comparison with Arg kinase, read-out: inhibition of EGFR kinase",97%
same,inhibition at 0.0625 µM,EGFR tyrosine kinase; read-out: inhibition rate of EGFR kinase activity,87.6%
same,IC50,"EGFR tyrosine kinase; from the dose-response curve, read-out: IC50 to inhibit EGFR kinase activity",5 nM
same,route of elimination,in vivo,mainly through fecal excretion
same,tissue distribution,in vivo,"widely distributed to various tissues, but was low in brain tissue"
same,Tmax,"in vivo; Beagle (dogs), rat, dog, po",~1 h
same,bioavailability,"in vivo; Beagle (dogs), rat, dog, po",27 to 62%
same,EC50,"[3]; A-431, read-out: median effective concentration (EC50)",~50 nM
same,inhibition at 0.01 µM,"[3]; A-431, A431 cells, 10 nM, read-out: inhibition of EGF-induced intracellular protein tyrosine phosphorylation",5.4%
same,inhibition at 0.05 µM,"[3]; A-431, A431 cells, 50 nM, read-out: inhibition of EGF-induced intracellular protein tyrosine phosphorylation",52.9%
same,inhibition at 0.25 µM,"[3]; A-431, A431 cells, 250 nM, read-out: inhibition of EGF-induced intracellular protein tyrosine phosphorylation",61.9%
same,inhibition at 1 µM,"[3]; A-431, A431 cells, 1000 nM, read-out: inhibition of EGF-induced intracellular protein tyrosine phosphorylation",63.7%
same,H460 tumor inhibition rate,[4]; 30 mg/kg oral gavage once daily for 14 days,37.5%
same,H460 tumor inhibition rate,[4]; 60 mg/kg oral gavage once daily for 14 days,49.3%
same,H460 tumor inhibition rate,[4]; 120 mg/kg oral gavage once daily for 14 days,52.0%
same,inhibitory activity on drug metabolism enzymes,drug metabolism enzymes,no inhibitory activity
same,body weight and appearance at experiment termination,[5]; A431 xenograft nude mice,gained weight
same,tumor inhibition rate,"[5]; A431 xenograft, 200 mg/kg oral gavage once daily (later reduced to 100 mg/kg)",64.6%
same,toxic effects,[5]; at either dose (200 and 50 mg/kg),No toxic effects were observed
same,anti-tumor effect (in words),"[5]; given orally, A431 xenograft mouse model",significant anti-tumor effects
